System: 885724-159-R-J1-PDC KRAS PDC multicell spheroid viability
Experiment: Anticancer human tumor 885724-159-R-J1-PDC patient-derived pancreatic adenocarcinoma cell line growth inhibition [KRAS2]
Settings: for IC50: curve of first compound; for viability, T/C: stronger effect = lower value; active = viability on the fitted dose curve at most 10% of control; inactive = the rest
Summary of the method: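 KRAS-mutant tumor cells were grown as spheroids with HUVEC endothelial cells and human MSCs as stroma. Targeted agents were tested alone and with KRAS pathway inhibitors. Doses started at or near clinical Cmax, or 10 microM, descending half-log.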

[1] = second compound 0.1 µM, first compound 0.000316 µM
[2] = second compound 0.1 µM, first compound 0.001 µM
[3] = second compound 0.1 µM, first compound 0.00316 µM
[4] = second compound 0.1 µM, first compound 0.01 µM
[5] = second compound 0.1 µM, first compound 0.0316 µM
[6] = second compound 0.316 µM, first compound 0.000316 µM
[7] = second compound 0.316 µM, first compound 0.001 µM
[8] = second compound 0.316 µM, first compound 0.00316 µM
[9] = second compound 0.316 µM, first compound 0.01 µM
[10] = second compound 0.316 µM, first compound 0.0316 µM
[11] = second compound 1 µM, first compound 0.000316 µM
[12] = second compound 1 µM, first compound 0.001 µM
[13] = second compound 1 µM, first compound 0.00316 µM
[14] = second compound 1 µM, first compound 0.01 µM
[15] = second compound 1 µM, first compound 0.0316 µM
[16] = second compound 3.16 µM, first compound 0.000316 µM
[17] = second compound 3.16 µM, first compound 0.001 µM
[18] = second compound 3.16 µM, first compound 0.00316 µM
[19] = second compound 3.16 µM, first compound 0.01 µM
[20] = second compound 3.16 µM, first compound 0.0316 µM
[21] = second compound 10 µM, first compound 0.000316 µM
[22] = second compound 10 µM, first compound 0.001 µM
[23] = second compound 10 µM, first compound 0.00316 µM
[24] = second compound 10 µM, first compound 0.01 µM
[25] = second compound 10 µM, first compound 0.0316 µM
[26] = second compound 0.1 µM, first compound 0.1 µM
[27] = second compound 0.316 µM, first compound 0.1 µM
[28] = second compound 1 µM, first compound 0.1 µM
[29] = second compound 3.16 µM, first compound 0.1 µM
[30] = second compound 10 µM, first compound 0.1 µM
[31] = second compound 0.1 µM, first compound 0.316 µM
[32] = second compound 0.1 µM, first compound 1 µM
[33] = second compound 0.1 µM, first compound 3.16 µM
[34] = second compound 0.1 µM, first compound 10 µM
[35] = second compound 0.316 µM, first compound 0.316 µM
[36] = second compound 0.316 µM, first compound 1 µM
[37] = second compound 0.316 µM, first compound 3.16 µM
[38] = second compound 0.316 µM, first compound 10 µM
[39] = second compound 1 µM, first compound 0.316 µM
[40] = second compound 1 µM, first compound 1 µM
[41] = second compound 1 µM, first compound 3.16 µM
[42] = second compound 1 µM, first compound 10 µM
[43] = second compound 3.16 µM, first compound 0.316 µM
[44] = second compound 3.16 µM, first compound 1 µM
[45] = second compound 3.16 µM, first compound 3.16 µM
[46] = second compound 3.16 µM, first compound 10 µM
[47] = second compound 10 µM, first compound 0.316 µM
[48] = second compound 10 µM, first compound 1 µM
[49] = second compound 10 µM, first compound 3.16 µM
[50] = second compound 10 µM, first compound 10 µM
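Also: spheroids exposed to agents for 7 days before readout.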

CC(=O)Nc1cccc(-n2c(=O)n(C3CC3)c(=O)c3c(Nc4ccc(I)cc4F)n(C)c(=O)c(C)c32)c1 + CC1OCC2(CCN(c3cnc(Sc4ccnc(N)c4Cl)c(N)n3)CC2)C1N
0.000532 µM: IC50 (second compound 0.316 µM)
0.000715 µM: IC50 (second compound 0.1 µM)
inactive: viability, T/C (second compound 0.1 µM, first compound 0.0001 µM) 81.5% | viability, T/C [1] 62% | viability, T/C [2] 44.4% | viability, T/C [3] 33.3% | viability, T/C [4] 24.1% | viability, T/C [5] 17.9% | viability, T/C (second compound 0.316 µM, first compound 0.0001 µM) 73.6% | viability, T/C [6] 57.4% | viability, T/C [7] 41.3% | viability, T/C [8] 28.8% | viability, T/C [9] 23.2% | viability, T/C [10] 15.9% | viability, T/C (second compound 1 µM, first compound 0.0001 µM) 64.7% | viability, T/C [11] 51.6% | viability, T/C [12] 34.8% | viability, T/C [13] 28% | viability, T/C [14] 18.4% | viability, T/C [15] 15% | viability, T/C (second compound 3.16 µM, first compound 0.0001 µM) 57% | viability, T/C [16] 47.6% | viability, T/C [17] 30.3% | viability, T/C [18] 24.3% | viability, T/C [19] 17.5% | viability, T/C [20] 14.3% | viability, T/C (second compound 10 µM, first compound 0.0001 µM) 50.6% | viability, T/C [21] 38.6% | viability, T/C [22] 26% | viability, T/C [23] 19.6% | viability, T/C [24] 13.8% | viability, T/C [25] 11.7%
0.000106 µM: IC50 (second compound 10 µM)
0.000213 µM: IC50 (second compound 3.16 µM)
0.000328 µM: IC50 (second compound 1 µM)

CN(C)C/C=C/C(=O)Nc1cc2c(Nc3ccc(F)c(Cl)c3)ncnc2cc1O[C@H]1CCOC1 + CC1OCC2(CCN(c3cnc(Sc4ccnc(N)c4Cl)c(N)n3)CC2)C1N
inactive: viability, T/C [1] 112% | viability, T/C [2] 105% | viability, T/C [3] 105% | viability, T/C [4] 89.4% | viability, T/C [5] 71.8% | viability, T/C [26] 68% | viability, T/C [6] 103% | viability, T/C [7] 102% | viability, T/C [8] 90.7% | viability, T/C [9] 81.3% | viability, T/C [10] 78.6% | viability, T/C [27] 71.5% | viability, T/C [11] 150% | viability, T/C [12] 144% | viability, T/C [13] 136% | viability, T/C [14] 121% | viability, T/C [15] 105% | viability, T/C [28] 89.2% | viability, T/C [16] 88.1% | viability, T/C [17] 88% | viability, T/C [18] 77.8% | viability, T/C [19] 72.8% | viability, T/C [20] 67.1% | viability, T/C [29] 62.8% | viability, T/C [21] 147% | viability, T/C [22] 149% | viability, T/C [23] 140% | viability, T/C [24] 116% | viability, T/C [25] 104% | viability, T/C [30] 92%
> 0.1 µM: IC50 (second compound 0.1 µM) | IC50 (second compound 0.316 µM) | IC50 (second compound 1 µM) | IC50 (second compound 3.16 µM) | IC50 (second compound 10 µM)

COC(=O)c1ccc2c(C(=Nc3ccc(N(C)C(=O)CN4CCN(C)CC4)cc3)c3ccccc3)c(O)[nH]c2c1 + CC1OCC2(CCN(c3cnc(Sc4ccnc(N)c4Cl)c(N)n3)CC2)C1N
1.4 µM: IC50 (second compound 3.16 µM)
inactive: viability, T/C [5] 95% | viability, T/C [26] 95.8% | viability, T/C [31] 92.2% | viability, T/C [32] 94.2% | viability, T/C [33] 21.9% | viability, T/C [10] 91.4% | viability, T/C [27] 84.9% | viability, T/C [35] 80.9% | viability, T/C [36] 86.4% | viability, T/C [37] 17.1% | viability, T/C [15] 67.3% | viability, T/C [28] 69.3% | viability, T/C [39] 73.8% | viability, T/C [40] 70.2% | viability, T/C [41] 14.8% | viability, T/C [20] 66.9% | viability, T/C [29] 74.1% | viability, T/C [43] 78.2% | viability, T/C [44] 66% | viability, T/C [45] 10.4% | viability, T/C [25] 62% | viability, T/C [30] 68.8% | viability, T/C [47] 61.4% | viability, T/C [48] 53.9%
1.82 µM: IC50 (second compound 0.316 µM)
active: viability, T/C [34] 0.87% | viability, T/C [38] 0.39% | viability, T/C [42] 1.25% | viability, T/C [46] 0.29% | viability, T/C [49] 2.07% | viability, T/C [50] 0.63%
1.52 µM: IC50 (second compound 1 µM)
1.09 µM: IC50 (second compound 10 µM)
2.02 µM: IC50 (second compound 0.1 µM)

COc1cc(Nc2ncc3c(n2)-c2ccc(Cl)cc2C(c2c(F)cccc2OC)=NC3)ccc1C(=O)O + CC1OCC2(CCN(c3cnc(Sc4ccnc(N)c4Cl)c(N)n3)CC2)C1N
> 10 µM: IC50 (second compound 0.1 µM) | IC50 (second compound 0.316 µM) | IC50 (second compound 1 µM) | IC50 (second compound 3.16 µM) | IC50 (second compound 10 µM)
inactive: viability, T/C [5] 104% | viability, T/C [26] 91.3% | viability, T/C [31] 92.4% | viability, T/C [32] 96.7% | viability, T/C [33] 99% | viability, T/C [34] 103% | viability, T/C [10] 95.1% | viability, T/C [27] 90.7% | viability, T/C [35] 85.8% | viability, T/C [36] 84.1% | viability, T/C [37] 91.2% | viability, T/C [38] 93.5% | viability, T/C [15] 90% | viability, T/C [28] 88.8% | viability, T/C [39] 78% | viability, T/C [40] 79.6% | viability, T/C [41] 79.4% | viability, T/C [42] 87.7% | viability, T/C [20] 81.7% | viability, T/C [29] 82.2% | viability, T/C [43] 76.4% | viability, T/C [44] 73.8% | viability, T/C [45] 75.2% | viability, T/C [46] 80.3% | viability, T/C [25] 76.5% | viability, T/C [30] 69.3% | viability, T/C [47] 70.6% | viability, T/C [48] 67.7% | viability, T/C [49] 70.9% | viability, T/C [50] 70.9%

COc1cc2nccc(Oc3ccc(NC(=O)C4(C(=O)Nc5ccc(F)cc5)CC4)cc3)c2cc1OC + CC1OCC2(CCN(c3cnc(Sc4ccnc(N)c4Cl)c(N)n3)CC2)C1N
2.98 µM: IC50 (second compound 3.16 µM)
3.12 µM: IC50 (second compound 1 µM)
> 10 µM: IC50 (second compound 0.1 µM) | IC50 (second compound 0.316 µM)
inactive: viability, T/C [5] 87.1% | viability, T/C [26] 87.9% | viability, T/C [31] 87.9% | viability, T/C [32] 82.7% | viability, T/C [33] 59.1% | viability, T/C [34] 63% | viability, T/C [10] 84.7% | viability, T/C [27] 79.9% | viability, T/C [35] 83.7% | viability, T/C [36] 84.7% | viability, T/C [37] 60.5% | viability, T/C [38] 51.1% | viability, T/C [15] 74.3% | viability, T/C [28] 71.2% | viability, T/C [39] 76.2% | viability, T/C [40] 72.5% | viability, T/C [41] 49.1% | viability, T/C [42] 50.3% | viability, T/C [20] 75.5% | viability, T/C [29] 82.8% | viability, T/C [43] 72.1% | viability, T/C [44] 67.7% | viability, T/C [45] 45.8% | viability, T/C [46] 52.3% | viability, T/C [25] 71.4% | viability, T/C [30] 62.9% | viability, T/C [47] 67.4% | viability, T/C [48] 63.3% | viability, T/C [49] 44% | viability, T/C [50] 39.4%
2.21 µM: IC50 (second compound 10 µM)

O=C(c1cc(Cc2n[nH]c(=O)c3ccccc23)ccc1F)N1CCN(C(=O)C2CC2)CC1 + CC1OCC2(CCN(c3cnc(Sc4ccnc(N)c4Cl)c(N)n3)CC2)C1N
inactive: viability, T/C [5] 111% | viability, T/C [26] 113% | viability, T/C [31] 106% | viability, T/C [32] 104% | viability, T/C [33] 100% | viability, T/C [34] 95.8% | viability, T/C [10] 103% | viability, T/C [27] 109% | viability, T/C [35] 104% | viability, T/C [36] 103% | viability, T/C [37] 104% | viability, T/C [38] 89.6% | viability, T/C [15] 145% | viability, T/C [28] 149% | viability, T/C [39] 143% | viability, T/C [40] 137% | viability, T/C [41] 118% | viability, T/C [42] 104% | viability, T/C [20] 81% | viability, T/C [29] 90.4% | viability, T/C [43] 85.1% | viability, T/C [44] 86% | viability, T/C [45] 78.9% | viability, T/C [46] 77.6% | viability, T/C [25] 78.3% | viability, T/C [30] 87.4% | viability, T/C [47] 132% | viability, T/C [48] 81% | viability, T/C [49] 70.7% | viability, T/C [50] 67.1%
> 10 µM: IC50 (second compound 0.1 µM) | IC50 (second compound 0.316 µM) | IC50 (second compound 1 µM) | IC50 (second compound 3.16 µM) | IC50 (second compound 10 µM)
